target: NADH:ubiquinone oxidoreductase (Complex I) (Bos taurus, UniProt P03887+P17694+P42026); experiment: inhibitory potency for NADH:ubiquinone oxidoreductase activity in vitro using bovine heart electron transport particles; format: biochemical; conditions: bovine heart electron transport particles
Experimental: This primary library was screened for inhibitory potency against NADH:ubiquinone oxidoreductase activity as described below. […] As described below, a series of focused libraries were then synthesized using a combination of solid and solution phase chemistry in an attempt to evaluate particular structural sub-regions (denoted I-IV in FIG. 9) of the lead structure, thus allowing structure activity relationships to be developed.
(§1) SAR optimization was carried out on each of the four regions (I-IV) of interest guided by the inhibitory potency for NADH:ubiquinone oxidoreductase activity in vitro using bovine heart electron transport particles (see Singer (Singer, T. P. (1974). In Methods of Biochemical Analysis (Glick, D. ed., Wiley New York), 22, pp. 123-175) for details).
as §1, with “FIG. 15 is a graphical summary of structure activity trends observed for benzopyran-based inhibitors of NADH:ubiquinone oxidoreductase. SAR” for “SAR”, “T.P.” for “T. P.”

Chain of NADH:ubiquinone oxidoreductase (Complex I) (P03887 whole entry): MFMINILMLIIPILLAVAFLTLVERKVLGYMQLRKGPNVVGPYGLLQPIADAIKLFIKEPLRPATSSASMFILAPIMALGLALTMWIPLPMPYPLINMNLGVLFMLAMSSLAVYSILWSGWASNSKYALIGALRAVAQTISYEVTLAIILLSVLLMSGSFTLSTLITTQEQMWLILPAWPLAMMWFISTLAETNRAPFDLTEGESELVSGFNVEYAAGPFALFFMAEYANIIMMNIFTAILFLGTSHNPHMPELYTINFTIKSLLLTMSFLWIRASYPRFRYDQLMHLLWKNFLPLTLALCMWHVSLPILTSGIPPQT
Chain of NADH:ubiquinone oxidoreductase (Complex I) (P42026 38-216): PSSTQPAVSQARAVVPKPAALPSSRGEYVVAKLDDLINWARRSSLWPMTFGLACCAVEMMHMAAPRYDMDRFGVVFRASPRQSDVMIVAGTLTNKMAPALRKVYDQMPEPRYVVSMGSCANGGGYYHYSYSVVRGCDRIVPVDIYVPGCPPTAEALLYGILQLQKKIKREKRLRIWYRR
Chain of NADH:ubiquinone oxidoreductase (Complex I) (P17694 34-463): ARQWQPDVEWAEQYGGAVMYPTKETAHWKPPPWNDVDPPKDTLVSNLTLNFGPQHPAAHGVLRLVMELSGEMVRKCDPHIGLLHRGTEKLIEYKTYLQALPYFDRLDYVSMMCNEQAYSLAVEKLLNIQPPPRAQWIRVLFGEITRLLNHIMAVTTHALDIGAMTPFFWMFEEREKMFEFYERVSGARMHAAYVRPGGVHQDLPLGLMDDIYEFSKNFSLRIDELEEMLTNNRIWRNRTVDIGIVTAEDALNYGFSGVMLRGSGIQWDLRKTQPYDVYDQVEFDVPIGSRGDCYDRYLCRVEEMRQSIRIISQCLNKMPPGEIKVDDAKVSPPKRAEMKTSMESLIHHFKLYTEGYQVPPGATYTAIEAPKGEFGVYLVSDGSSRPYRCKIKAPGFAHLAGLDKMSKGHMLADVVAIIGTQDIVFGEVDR

Compound | IC50
COc1cc(CC(=C(F)F)c2ccc3c(c2)CCC(C)(C)O3)cc(OC)c1OC [Compound 169] | 0.048 µM
COc1ccc(COC(=O)c2ccc3c(c2)C=CC(C)(C)O3)cc1OC [Compound 42] | 0.22 µM
COc1cc(CC(=O)c2ccc3c(c2)CCC(C)(C)O3)cc(OC)c1OC [Compound 165] | 0.024 µM
COc1cc(CC(=O)c2ccc3c(c2)C=CC(C)(C)O3)cc(OC)c1OC [Compound 158] | 0.039 µM
COc1cc(CSc2ccc3c(c2)C=CC(C)(C)O3)cc(OC)c1OC [Compound 178] | 0.043 µM
C=C(Cc1cc(OC)c(OC)c(OC)c1)c1ccc2c(c1)C=CC(C)(C)O2 [Compound 163] | 0.019 µM
C=C(Cc1cc(OC)c(OC)c(OC)c1)c1ccc2c(c1)CCC(C)(C)O2 [Compound 167] | 0.018 µM
COc1cc(CC(=C(Cl)Cl)c2ccc3c(c2)CCC(C)(C)O3)cc(OC)c1OC [Compound 168] | 2.7 µM
COc1cc(COC(=O)c2ccc3c(c2)C=CC(C)(C)O3)cc(OC)c1OC [Compound 55] | 0.055 µM
COc1cc(COC(=O)c2ccc3c(c2)CCC(C)(C)O3)cc(OC)c1OC [Compound 140] | 0.053 µM

same assay, conditions: relative to parent/lead compound

Compound | inhibitory activity
COc1cc(CC(=O)c2ccc3c(c2)CCC(C)(C)O3)cc(OC)c1OC [Compound 165] | almost twice as active as the parent olefin

test system: Complex I; experiment: Complex I activity in in vitro assays (literature, Fang/Casida); format: biochemical; conditions: ratio of IC50 values
From the text: Novel lead compounds were identified through the screening of natural product-like combinatorial libraries. Separation of the constituents of this resin provided the major components rotenone (1, FIG. 2) and deguelin (7, FIG. 3) along with minor constituents, including dehydrodeguelin (8), oxadehydrodeguelin (9), lonchocarpusone (10), 4-hydroxylonchocarpene (11), 4-hydroxy-3-methoxylonchocarpene (12), stilbenes 13-15, and isoflavones 16-18 (FIG. 3) among others. […] Despite the diversity in these bridging units, all of the compounds (7-18) inhibited Complex I activity in in vitro assays (Fang, N.; Casida, J. E. J. Nat. Prod. 1999, 62, 205-210; Fang, N.; et al. Chem. Res. Toxicol. 1997, 10, 853-858). […] Given this effect, it was envisioned that screening a benzopyran-based combinatorial library wherein this “bridge” unit was varied (i.e. structure 19, FIG. 3) might lead to the identification of interesting structure activity relationships (SAR), and potentially to new lead compounds in this series.

Compound | fold more active than lonchocarpusone
COc1cc2c(cc1OC)[C@@H]1C(=O)c3ccc4c(c3O[C@@H]1CO2)C=CC(C)(C)O4 [deguelin] | ~500 fold

test system: Complex I; experiment: not given; conditions: natural products from Cubé resin; cited from earlier work

Compound | IC50
COc1cc(OC)c(C2COc3c(ccc4c3C=CC(C)(C)O4)C2=O)cc1OC (centres unmarked) [lonchocarpusone] | 3.3 µM
COc1cc2c(cc1OC)[C@@H]1C(=O)c3ccc4c(c3O[C@@H]1CO2)C=CC(C)(C)O4 [deguelin] | 0.0069 µM

— US7410998B2, “Inhibitors of NADH:ubiquinone oxidoreductase” (The Scripps Research Institute, priority 2000, dated 2008)
